Test results as given in PubChem BioAssay AID330 (DTP/NCI, 2004).
Where “and” joins values, the source holds several entries; their conditions need not be identical. Equal values may be shown once. Toxic doses and inconclusive results are not listed. How the source made its calls: active means survival T/C of 150% or more; inactive means T/C below 125% in these data.

System: P388 leukemia ip, CD2F1 mice, survival T/C
Test: NCI In Vivo Anticancer Drug Screen. Data for tumor model P388 Leukemia (intraperitoneal) in CD2F1 (CDF1) mice
Conditions: endpoint: median survival time, higher = longer survival
Summary of the method: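 Mice carrying the transplanted tumor received test compound or vehicle. Survival was recorded in each group, and the value is the treated-group measurement divided by that of the vehicle-treated control group.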

[1] = dose: 100.0 mg/kg/injection, schedule: Q04DX003 (ip), vehicle: saline with Tween-80
[2] = dose: 200.0 mg/kg/injection, schedule: Q04DX003 (ip), vehicle: saline with Tween-80
[3] = dose: 50.0 mg/kg/injection, schedule: Q01DX009 (ip), vehicle: saline with Tween-80
[4] = dose: 100.0 mg/kg/injection, schedule: Q01DX009 (ip), vehicle: saline with Tween-80
[5] = dose: 200.0 mg/kg/injection, schedule: Q01DX009 (ip), vehicle: saline with Tween-80
[6] = dose: 50.0 mg/kg/injection, schedule: Q01DX005 (ip), vehicle: saline
[7] = dose: 100.0 mg/kg/injection, schedule: Q01DX005 (ip), vehicle: saline
[8] = dose: 200.0 mg/kg/injection, schedule: Q01DX005 (ip), vehicle: saline
[9] = dose: 25.0 mg/kg/injection, schedule: Q01DX009 (ip), vehicle: Klucel (hydroxypropylcellulose) (HPC)
[10] = dose: 50.0 mg/kg/injection, schedule: Q01DX009 (ip), vehicle: Klucel (hydroxypropylcellulose) (HPC)
[11] = dose: 100.0 mg/kg/injection, schedule: Q01DX009 (ip), vehicle: Klucel (hydroxypropylcellulose) (HPC)
[12] = dose: 50.0 mg/kg/injection, schedule: Q01DX005 (ip), vehicle: saline with Tween-80
[13] = dose: 100.0 mg/kg/injection, schedule: Q01DX005 (ip), vehicle: saline with Tween-80
[14] = dose: 200.0 mg/kg/injection, schedule: Q01DX009 (ip), vehicle: Klucel (hydroxypropylcellulose) (HPC)

Measured: T/C

COc1ccc(OC)c(NC(=O)OCc2ccc3c(c2)OCO3)c1
inactive: dose: 60.0 mg/kg/injection, schedule: Q01DX005 (ip), vehicle: saline with Tween-80 98 % of control | dose: 120.0 mg/kg/injection, schedule: Q01DX005 (ip), vehicle: saline with Tween-80 95 % of control | dose: 240.0 mg/kg/injection, schedule: Q01DX005 (ip), vehicle: saline with Tween-80 93 % of control

CC[n+]1cccc2ccccc21
inactive: [1] 101 % of control | [2] 94 % of control

CC1=CC(O)(C2(C)OC(C)(C)OC2=O)CCC1 (configuration not stated)
inactive: dose: 100.0 mg/kg/injection, schedule: Q01DX001 (ip), vehicle: saline 100 % of control | dose: 200.0 mg/kg/injection, schedule: Q01DX001 (ip), vehicle: saline 100 % of control | dose: 400.0 mg/kg/injection, schedule: Q01DX001 (ip), vehicle: saline 100 % of control

CCc1nc2ccccc2c(=O)n1C
inactive: dose: 12.5 mg/kg/injection, schedule: Q01DX009 (ip), vehicle: saline with Tween-80 100 % of control | dose: 25.0 mg/kg/injection, schedule: Q01DX009 (ip), vehicle: saline with Tween-80 100 % of control | [3] 95 % of control

NS(=O)(=O)c1ccc(N=Cc2ccccc2)cc1
inactive: [4] 103 % of control | [5] 100 % of control | dose: 400.0 mg/kg/injection, schedule: Q01DX009 (ip), vehicle: saline with Tween-80 98 % of control

COc1cc(NC(C)CN(CC(C)C)CC(C)C)c2ncccc2c1Cl (configuration not stated)
inactive: [6] 100 % of control | [7] 103 % of control | [8] 116 % of control

Cc1ccc(Cl)cc1NC(=O)COc1ccc(Cl)cc1Cl
inactive: [1] 100 % of control | [2] 100 % of control | dose: 400.0 mg/kg/injection, schedule: Q04DX003 (ip), vehicle: saline with Tween-80 90 % of control

O=C(OCCN1CCN(CCCN2c3ccccc3Sc3ccc(C(F)(F)F)cc32)CC1)C12CC3CC(CC(C3)C1)C2
inactive: dose: 3.12 mg/kg/injection, schedule: Q01DX009 (ip), vehicle: Klucel (hydroxypropylcellulose) (HPC) 105 % of control | dose: 6.25 mg/kg/injection, schedule: Q01DX009 (ip), vehicle: Klucel (hydroxypropylcellulose) (HPC) 103 % of control and 96 % of control | dose: 12.5 mg/kg/injection, schedule: Q01DX009 (ip), vehicle: Klucel (hydroxypropylcellulose) (HPC) 110 % of control and 112 % of control and 97 % of control | [9] 112 % of control | [10] 113 % of control | [11] 118 % of control

O=C1c2ccccc2OCC1CS(=O)(=O)CC1COc2ccccc2C1=O (configuration not stated)
inactive: dose: 100.0 mg/kg/injection, schedule: Q04DX003 (ip), vehicle: saline 98 % of control | dose: 200.0 mg/kg/injection, schedule: Q04DX003 (ip), vehicle: saline 97 % of control | dose: 400.0 mg/kg/injection, schedule: Q04DX003 (ip), vehicle: saline 91 % of control

OC(CCl)Cn1nnc2c3ccccc3ccc21 (configuration not stated)
inactive: dose: 25.0 mg/kg/injection, schedule: Q01DX005 (ip), vehicle: saline with Tween-80 101 % of control | [12] 101 % of control | [13] 101 % of control | [1] 99 % of control | [2] 94 % of control

CCn1c2ccccc2c2cc(N)c(N=Nc3ccc([N+](=O)[O-])c(OC)c3)cc21
inactive: [10] 104 % of control | [11] 104 % of control | [14] 105 % of control

C/C1=C\CC/C(C)=C/CC/C(C)=C/CC(C)(C)/C=C/C1
inactive: dose: 25.0 mg/kg/injection, schedule: Q01DX009 (ip), vehicle: saline + Tween-80 + alcohol 112 % of control | dose: 50.0 mg/kg/injection, schedule: Q01DX009 (ip), vehicle: saline + Tween-80 + alcohol 112 % of control | dose: 100.0 mg/kg/injection, schedule: Q01DX009 (ip), vehicle: saline + Tween-80 + alcohol 111 % of control

CCOC(=O)c1ccc(NC(CCNC2CCCCC2)=NC(C)(C)C)cc1
inactive: [3] 96 % of control | [4] 97 % of control | [5] 96 % of control

COC(=O)C(C)(O)C(C)C1CO1 (configuration not stated)
inactive: [6] 98 % of control | [7] 101 % of control | [8] 121 % of control

CCCCC(O)/C=C(C)/C=C/C=C/C(=O)N1CCCC1=O (configuration not stated)
inactive: [9] 113 % of control | [10] 113 % of control | [11] 110 % of control | [14] 110 % of control | dose: 400.0 mg/kg/injection, schedule: Q01DX009 (ip), vehicle: Klucel (hydroxypropylcellulose) (HPC) 118 % of control

CC(C)(C(=O)O)c1ccc(C(=O)O)c(Br)c1
inactive: [3] 91 % of control | [4] 93 % of control | [5] 101 % of control

O=C(Nc1nccs1)Nc1cc(C(F)(F)F)ccc1Cl
inactive: [9] 102 % of control | [10] 108 % of control | [11] 97 % of control

O=C(COc1ccc(Cl)cc1)OC(=O)COc1ccc(Cl)cc1
inactive: dose: 25.0 mg/kg/injection, schedule: Q01DX009 (ip), vehicle: other 110 % of control | dose: 50.0 mg/kg/injection, schedule: Q01DX009 (ip), vehicle: other 112 % of control | dose: 100.0 mg/kg/injection, schedule: Q01DX009 (ip), vehicle: other 110 % of control | dose: 200.0 mg/kg/injection, schedule: Q01DX009 (ip), vehicle: other 106 % of control

CN1OC(=O)OC2(CCCCC2)C1=O
inactive: [6] 96 % of control | [7] 99 % of control | [8] 96 % of control

Cc1ccc2nc3sc(=O)sc3nc2c1
inactive: dose: 60.0 mg/kg/injection, schedule: Q01DX005 (ip), vehicle: Klucel (hydroxypropylcellulose) (HPC) 101 % of control | dose: 120.0 mg/kg/injection, schedule: Q01DX005 (ip), vehicle: Klucel (hydroxypropylcellulose) (HPC) 107 % of control

CCOC(=O)C(C)c1ccccc1-c1cccc(OC)c1 (configuration not stated)
inactive: [12] 94 % of control | [13] 97 % of control | dose: 200.0 mg/kg/injection, schedule: Q01DX005 (ip), vehicle: saline with Tween-80 103 % of control

Cn1c(-c2ccccc2)c2c(c1-c1ccccc1)C(=O)c1ccccc1C2=O
inactive: [10] 95 % of control | [11] 101 % of control | [14] 100 % of control

O=c1cc(O)n(-c2ccccc2)c(=O)n1-c1ccccc1
inactive: dose: 75.0 mg/kg/injection, schedule: Q01DX009 (ip), vehicle: saline with Tween-80 102 % of control | dose: 150.0 mg/kg/injection, schedule: Q01DX009 (ip), vehicle: saline with Tween-80 100 % of control | dose: 300.0 mg/kg/injection, schedule: Q01DX009 (ip), vehicle: saline with Tween-80 100 % of control

N#Cc1ccccc1S(=O)(=O)O
inactive: dose: 100.0 mg/kg/injection, schedule: Q01DX001 (ip), vehicle: saline with Tween-80 96 % of control | dose: 200.0 mg/kg/injection, schedule: Q01DX001 (ip), vehicle: saline with Tween-80 90 % of control | dose: 400.0 mg/kg/injection, schedule: Q01DX001 (ip), vehicle: saline with Tween-80 102 % of control

C1CCCC2(CCC1)OCCO2
inactive: dose: 100.0 mg/kg/injection, schedule: Q04DX003 (ip), vehicle: Klucel (hydroxypropylcellulose) (HPC) 106 % of control | dose: 200.0 mg/kg/injection, schedule: Q04DX003 (ip), vehicle: Klucel (hydroxypropylcellulose) (HPC) 102 % of control | dose: 400.0 mg/kg/injection, schedule: Q04DX003 (ip), vehicle: Klucel (hydroxypropylcellulose) (HPC) 95 % of control

CCCCOP(=O)(O)OCCCC.[U]
inactive: dose: 6.25 mg/kg/injection, schedule: Q01DX009 (ip), vehicle: saline with Tween-80 97 % of control
